# Results reported in patent US5292498A, “Method of treating lung disease with uridine triphosphates” (The University of North Carolina At Chapel Hill, priority 1991, dated 1994).
# Legend:
# [1] = test system: normal human nasal epithelial cells; experiment: Intracellular calcium [Ca^2+ ]i in single normal human nasal epithelial cells (Fura-2); assay type: cell-based
# Procedure: (§1) Freshly excised human nasal epithelium from normal or cystic fibrosis subjects was grown in primary culture in F-12, hormone-supplemented medium in accordance with known procedures. See R. Wu et al., Am. Rev. Respir. Dis. 132, 311-320 (1985). For [Ca^2+ ]i measurements, cultures were grown on non-fluorescent vitrogen substrates on glass coverslips. Cultures for electrophysiologic studies were grown to confluence on permeable collagen matrix supports (CMS), allowing addition of agonists to the basolateral or apical surface of the epithelial sheet.
# Primary human nasal epithelial cells grown to confluence on vitrogen coated coverslips were loaded with a final concentration of 3 μM Fura-2/AM at 37° C. for 30 minutes. The cells were then washed in NaCl Ringer and mounted in a chamber for measurements of fluorescence. To reduce the rate of leakage of Fura-2 from the cell into the extracellular space and avoid time-dependent compartmentalization of the probe, all measurements of [Ca^2+ ]i were performed at 25° C. At this temperature,no vesicular bright spots indicative of compartmentalization of the probe were observed.
# Measurements of [Ca^2+ ]i in single human nasal epithelial cells were obtained with a modular microspectrofluorimeter (SPEX Industries, Inc., Edison, N.J.) attached to a Zeiss Axiovert IM 35 microscope. The system was equipped with a xenon lamp, beam splitter, two monochromators and a rotating chopper mirror that permitted excitation of cell fluorescence at alternating wavelengths of 340 and 380 nm (emission ≥450 nm). The fluorescent signal from a single cell was measured with a photometer equipped with a pinhole (spot diameter of 3-5 μm) that excluded signals from adjacent cells.
# After agonist was added, the fluorescent signal was quenched by a NaCl ringer solution containing 1.5×10^-4 M digitonin and 10^-3 M MnCl2. The remaining signal at each excitation wavelength, equivalent to the background fluorescence in non loaded cells, was subtracted from data from Fura-2/AM loaded cells before the ratio (340 nm/380 nm) was taken. The 340 nm/380 nm ratio was converted to an actual [Ca^2+ ]i measurement by using the external calibration standards and the formula derived by G. Grynkiewicz et al., J. Biol. Chem. 260, 3440-3450 (1985), used with dual wavelength measurements: [Ca^2+ ]i =K [(Rx --Ro)/(Rs --Rx)], with Ro and Rs representing the ratios at 0 Ca^2+ and saturating Ca^2+, respectively. Rx represents the experimental ratio.
# To investigate whether changes in [Ca^2+ ]i might be related to regulation of ion transport, receptor characterization was performed by measuring changes in [Ca^2+ ]i in response to a number of nucleotide drugs. Concentration-effect curves for agonists active at P2x, P2y subtype or UTP sensitive receptors and other purine or pyrimidine receptor agonists were generated, measuring mean change in [Ca^2+ ]i in response to agonist concentration. Data are shown in FIG. 3, which gives log concentration-effect relationships of purinergic and pyrimidinergic compounds on [Ca^2+ ]i (mean change in [Ca^2+ ]i over basal levels).
# [2] = test system: CF human nasal epithelium; experiment: Bioelectric studies (Isc) of cystic fibrosis (CF) human nasal epithelium; assay type: cell-based; details: for Isc response tracing: 10^-4 M, amiloride-pretreated (10^-4 M)
# Procedure: as §1
# Confluent monolayers of primary human nasal epithelium were mounted in modified Ussing chambers in accordance with known procedures. See, e.g., R. Boucher et al., J. Physiol. (Lond.) 405, 77-103 (1988); M. Knowles et al., Science 221, 1067-1070 (1983). The studies described below were performed under short circuit current conditions at 37° C., and in some studies, amiloride was added to the apical bath (10^-4 M) to block transepithelial sodium transport. Changes in transepithelial potential difference (Vt), resistance (Rt) and short circuit current (Isc) were measured in response to addition of various nucleotides. Each cultured preparation was exposed to only one concentration of an agonist on either the basolateral or apical surface to avoid the tachyphylaxis observed in preliminary cumulative dose response studies. To construct concentration-effect relationships of responses to nucleotides, it was assumed that the same maximum response to an agonist could be induced from each tissue culture preparation from the same individual.
# The purinergic receptor subtype(s) linked to regulation of ion transport of human nasal epithelium were characterized by obtaining concentration-effect relationships for a variety of purine and pyrimidine agonists in preparations derived from normal and CF patients. We characterized receptor subtype(s) on the […] surface by measuring nucleotide effect on basal Na^+ transport rates. Because therapies designed to induce Cl^- secretion might best be delivered by the aerosol route, receptor subtype characterization on the apical barrier was performed in the presence of amiloride. The effect of extracellular nucleotides on ion transport is reported as the percent change in Isc from control values when applied to the basolateral or apical surface of the culture. Basal pre-agonist currents were similar for tissues in each concentration group.
# Availability of Cystic Fibrosis (CF) tissues is limited, and our investigation of effects of nucleotides was restricted to examining regulation of Cl^- secretion rates and [Ca^2+ ]i levels by ATP and UTP.
smiles,measurement,setting,value
"Nc1ncnc2c1ncn2[C@@H]1O[C@H](COP(=O)(O)OP(=O)(O)OP(=O)(O)O)[C@@H](O)[C@H]1O [ATP, adenosine triphosphate]",[Ca^2+ ]i response in Ca^2+ -free medium,[1]; Ca^2+ -free medium,initial sharp increase in [Ca^2+ ]i
same,time for [Ca^2+ ]i to return to baseline,[1]; Ca^2+ -free medium,two
same,effectiveness for raising [Ca^2+ ]i,"[1]; concentration-effect curves, FIG. 3",most effective agonists
same,[Ca^2+ ]i response,"[1]; extracellular application, Ca^2+ -containing solution",immediate increase in [Ca^2+ ]i levels
same,plateau phase on return to Ca^2+ -containing solution,[1]; return of cells to Ca^2+ -containing solution,restoration of the plateau phase
same,Isc response tracing,"[2]; apical surface, FIG. 4A",Cl^- secretion in response to ATP
same,Isc response tracing,"[2]; apical surface, FIG. 4B",opposite polarity
same,Emax,"[2]; Homo sapiens, read-out: maximum mean % change in Isc",14 ± 3%
same,change in Isc over basal levels,"[2]; apical surface, amiloride-pretreated CF tissues",Most tissues exhibited an increase in Isc over basal levels
same,pattern of Isc response,"[2]; apical, amiloride-pretreated CF tissues",two distinct patterns of response
same,CF tissues responding with a change to opposite polarity of Isc,"[2]; apical, amiloride-pretreated CF tissues, FIG. 4B",approximately 30%
same,Cl^- secretion (amiloride-resistant Isc),"[2]; basolateral addition, CF tissues",Only small changes in Cl^- secretion
